Laboratory results as given in US10123993B2, “Cyclic ureas as inhibitors of rock” (BRISTOL-MYERS SQUIBB COMPANY, priority 2015, dated 2018).
pIC50: −log10 of the molar value.

Biological target: ROCK2 (Homo sapiens, UniProt O75116)
Assay: ROCK2 kinase inhibition assay (Caliper LABCHIP, FITC peptide substrate)
Assay type: biochemical
Conditions: 5 μM ATP, 1.5 μM peptide substrate; value ranges
Procedure, shortened: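 Dose-response curves gave IC50 from inhibition of peptide phosphorylation, measured by LabChip separation after EDTA stop. Reactions used 1.5 μM FITC-labelled peptide, 5 μM ATP, 20 mM HEPES pH 7.5 with MgCl2, Brij-35, DTT, and under 2% DMSO.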

ROCK2, sequence (O75116 whole entry, species assumed): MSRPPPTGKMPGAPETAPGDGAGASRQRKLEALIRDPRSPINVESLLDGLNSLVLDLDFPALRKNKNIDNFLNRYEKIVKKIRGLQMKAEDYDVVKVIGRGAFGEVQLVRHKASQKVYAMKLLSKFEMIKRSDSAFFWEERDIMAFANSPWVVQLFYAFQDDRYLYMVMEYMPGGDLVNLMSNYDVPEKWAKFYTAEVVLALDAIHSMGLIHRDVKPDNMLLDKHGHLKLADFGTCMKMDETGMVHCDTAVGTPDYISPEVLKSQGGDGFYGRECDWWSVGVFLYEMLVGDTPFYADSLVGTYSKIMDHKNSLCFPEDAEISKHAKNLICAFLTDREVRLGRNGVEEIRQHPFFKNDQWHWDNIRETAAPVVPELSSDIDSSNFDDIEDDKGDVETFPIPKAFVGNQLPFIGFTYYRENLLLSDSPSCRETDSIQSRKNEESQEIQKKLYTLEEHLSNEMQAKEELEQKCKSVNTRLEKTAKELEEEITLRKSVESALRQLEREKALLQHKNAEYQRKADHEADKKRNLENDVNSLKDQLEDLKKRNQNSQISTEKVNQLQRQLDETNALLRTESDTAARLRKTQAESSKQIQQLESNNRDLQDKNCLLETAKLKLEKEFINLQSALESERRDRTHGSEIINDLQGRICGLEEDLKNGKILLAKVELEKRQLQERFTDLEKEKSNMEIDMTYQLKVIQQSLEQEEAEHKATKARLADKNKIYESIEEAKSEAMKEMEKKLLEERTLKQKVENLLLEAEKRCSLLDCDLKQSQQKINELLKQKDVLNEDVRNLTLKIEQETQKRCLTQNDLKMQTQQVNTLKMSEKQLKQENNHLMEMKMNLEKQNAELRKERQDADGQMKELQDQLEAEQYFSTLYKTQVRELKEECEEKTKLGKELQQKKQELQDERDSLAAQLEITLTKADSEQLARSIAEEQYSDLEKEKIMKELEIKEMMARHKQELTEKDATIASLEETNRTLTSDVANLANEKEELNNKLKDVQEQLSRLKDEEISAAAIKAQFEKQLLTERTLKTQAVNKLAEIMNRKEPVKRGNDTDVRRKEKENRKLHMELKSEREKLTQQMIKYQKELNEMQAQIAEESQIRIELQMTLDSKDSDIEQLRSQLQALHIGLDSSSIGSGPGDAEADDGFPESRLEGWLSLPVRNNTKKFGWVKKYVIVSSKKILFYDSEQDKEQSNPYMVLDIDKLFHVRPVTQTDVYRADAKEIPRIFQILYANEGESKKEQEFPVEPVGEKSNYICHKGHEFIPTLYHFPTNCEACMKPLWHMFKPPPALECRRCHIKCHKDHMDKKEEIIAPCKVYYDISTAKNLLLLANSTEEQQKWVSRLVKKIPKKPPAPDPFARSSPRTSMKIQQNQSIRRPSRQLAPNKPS

Row | pIC50 | SMILES
1 | > 8.70 | COc1nc(-n2ccn(Cc3cccc(OCC4CC4)c3)c2=O)ccc1-c1cn[nH]c1 [Example 378, 1-(3-(cyclopropylmethoxy)benzyl)-3-(6-methoxy-5-(1H-pyrazol-4-yl)pyridin-2-yl)-1H-imidazol-2(3H)-one]
2 | > 8.70 | COc1nc(-n2ccn(Cc3cccc(F)c3C)c2=O)ccc1-c1cn[nH]c1 [Example 380, 1-(3-fluoro-2-methylbenzyl)-3-(6-methoxy-5-(1H-pyrazol-4-yl)pyridin-2-yl)-1H-imidazol-2(3H)-one]
3 | 7.70 to 8.68 | COc1nc(-n2ccn(Cc3ccc(F)cc3C)c2=O)ccc1-c1cn[nH]c1 [Example 381, 1-(4-fluoro-2-methylbenzyl)-3-(6-methoxy-5-(1H-pyrazol-4-yl)pyridin-2-yl)-1H-imidazol-2(3H)-one]
4 | 7.70 to 8.68 | COc1nc(-n2ccn(Cc3cc(F)ccc3C)c2=O)ccc1-c1cn[nH]c1 [Example 382, 1-(5-fluoro-2-methylbenzyl)-3-(6-methoxy-5-(1H-pyrazol-4-yl)pyridin-2-yl)-1H-imidazol-2(3H)-one]
5 | 6.70 to 7.70 | COc1cc(F)ccc1Cn1ccn(-c2ccc(-c3cn[nH]c3)c(OC)n2)c1=O [Example 383, 1-(4-fluoro-2-methoxybenzyl)-3-(6-methoxy-5-(1H-pyrazol-4-yl)pyridin-2-yl)-1H-imidazol-2(3H)-one]
6 | 7.70 to 8.68 | COc1nc(-n2ccn(Cc3cc(F)cc(OCC4CC4)c3)c2=O)ccc1-c1cn[nH]c1 [Example 395, 1-(3-(cyclopropylmethoxy)-5-fluorobenzyl)-3-(6-methoxy-5-(1H-pyrazol-4-yl)pyridin-2-yl)-1H-imidazol-2(3H)-one]
7 | 6.70 to 7.70 | O=c1n(Cc2cc(F)cc(OCC3CC3)c2)ccn1-c1ccc(-c2cn[nH]c2)cc1 [Example 396, 1-(4-(1H-pyrazol-4-yl)phenyl)-3-(3-(cyclopropylmethoxy)-5-fluorobenzyl)-1H-imidazol-2(3H)-one]
8 | 7.70 to 8.68 | Cc1c(F)cccc1Cn1ccn(-c2ccc(-c3cn[nH]c3)cc2)c1=O [Example 402, 1-(4-(1H-pyrazol-4-yl)phenyl)-3-(3-fluoro-2-methylbenzyl)-1H-imidazol-2(3H)-one]
9 | 6.70 to 7.70 | Cc1cc(F)ccc1Cn1ccn(-c2ccc(-c3cn[nH]c3)cc2)c1=O [Example 403, 1-(4-(1H-pyrazol-4-yl)phenyl)-3-(4-fluoro-2-methylbenzyl)-1H-imidazol-2(3H)-one]

Second part, the molecule before the results:

Row | SMILES | pIC50
10 | COc1cccc(Cn2ccn(-c3ccc(-c4cn[nH]c4)cc3)c2=O)c1 [Example 334, l-(4-(1H-pyrazol-4-yl)phenyl)-3-(3-methoxybenzyl)-1H-imidazol-2(3H)-one] | > 8.70
11 | O=c1n(CCc2ccccc2)ccn1-c1ccc(-c2cn[nH]c2)cc1 [Example 335, 1-(4-(1H-pyrazol-4-yl)phenyl)-3-phenethyl-1H-imidazol-2(3H)-one] | 6.70 to 7.70
12 | COc1cc(F)cc(Cn2ccn(-c3ccc(-c4cn[nH]c4)cc3)c2=O)c1 [Example 336, 1-(4-(1H-pyrazol-4-yl)phenyl)-3-(3-fluoro-5-methoxybenzyl)-1H-imidazol-2(3H)-one] | 7.70 to 8.68
13 | COc1cccc(Cn2ccn(-c3ccc(-c4cn[nH]c4)cc3)c2=O)c1F [Example 337, 1-(4-(1H-pyrazol-4-yl)phenyl)-3-(2-fluoro-3-methoxybenzyl)-1H-imidazol-2(3H)-one] | 6.70 to 7.70
14 | COc1ccc(F)c(Cn2ccn(-c3ccc(-c4cn[nH]c4)cc3)c2=O)c1 [Example 338, 1-(4-(1H-pyrazol-4-yl)phenyl)-3-(2-fluoro-5-methoxybenzyl)-1H-imidazol-2(3H)-one] | 6.70 to 7.70
15 | COc1cccc(Cn2ccn(-c3ccc(-c4cn[nH]c4)c(OC)c3)c2=O)c1 [Example 342, 1-(3-methoxy-4-(1H-pyrazol-4-yl)phenyl)-3-(3-methoxybenzyl)-1H-imidazol-2(3H)-one] | > 8.70
16 | COc1cc(F)cc(Cn2ccn(-c3ccc(-c4cn[nH]c4)c(OC)c3)c2=O)c1 [Example 343, 1-(3-fluoro-5-methoxybenzyl)-3-(3-methoxy-4-(1H-pyrazol-4-yl)phenyl)-1H-imidazol-2(3H)-one] | 7.70 to 8.68
17 | COc1cccc(Cn2ccn(-c3ccc(-c4cn[nH]c4)cn3)c2=O)c1 [Example 344, 1-(5-(1H-pyrazol-4-yl)pyridin-2-yl)-3-(3-methoxybenzyl)-1H-imidazol-2(3H)-one] | 7.70 to 8.68
18 | COc1cc(F)cc(Cn2ccn(-c3ccc(-c4cn[nH]c4)cn3)c2=O)c1 [Example 345, 1-(5-(1H-pyrazol-4-yl)pyridin-2-yl)-3-(3-fluoro-5-methoxybenzyl)-1H-imidazol-2(3H)-one] | 7.70 to 8.68
19 | COc1cc(Cn2ccn(-c3ccc(-c4cn[nH]c4)cn3)c2=O)ccc1F [Example 346, 1-(5-(1H-pyrazol-4-yl)pyridin-2-yl)-3-(4-fluoro-3-methoxybenzyl)-1H-imidazol-2(3H)-one] | 6.70 to 7.70
20 | O=c1n(Cc2cccc(OCC3CC3)c2)ccn1-c1ccc(-c2cn[nH]c2)cn1 [Example 347, 1-(5-(1H-pyrazol-4-yl)pyridin-2-yl)-3-(3-(cyclopropylmethoxy)benzyl)-1H-imidazol-2(3H)-one] | 6.70 to 7.70
21 | CCc1cc(-n2ccn(Cc3ccc(F)c(OC)c3)c2=O)ccc1-c1cn[nH]c1 [Example 348, 1-(3-ethyl-4-(1H-pyrazol-4-yl)phenyl)-3-(4-fluoro-3-methoxybenzyl)-1H-imidazol-2(3H)-one] | 6.70 to 7.70
22 | COc1cccc(C(C(=O)O)n2ccn(-c3ccc(-c4cn[nH]c4)cn3)c2=O)c1 (stereo not shown) [Example 351, 2-(3-(5-(1H-pyrazol-4-yl)pyridin-2-yl)-2-oxo-2,3-dihydro-1H-imidazol-1-yl)-2-(3-methoxyphenyl)acetic acid] | 5.70 to 6.70
23 | COc1cccc(C(C(=O)O)n2ccn(-c3ccc(-c4cn[nH]c4)c(OC)c3)c2=O)c1 (stereo not shown) [Example 352, 2-(3-(3-methoxy-4-(1H-pyrazol-4-yl)phenyl)-2-oxo-2,3-dihydro-1H-imidazol-1-yl)-2-(3-methoxyphenyl)acetic acid] | 5.70 to 6.70
24 | COc1ccc(F)c(Cn2ccn(-c3ccc(-c4cn[nH]c4)c(OC)n3)c2=O)c1 [Example 373, 1-(2-fluoro-5-methoxybenzyl)-3-(6-methoxy-5-(1H-pyrazol-4-yl)pyridin-2-yl)-1H-imidazol-2(3H)-one] | > 8.70
25 | COc1ccc(F)cc1Cn1ccn(-c2ccc(-c3cn[nH]c3)c(OC)n2)c1=O [Example 374, 1-(5-fluoro-2-methoxybenzyl)-3-(6-methoxy-5-(1H-pyrazol-4-yl)pyridin-2-yl)-1H-imidazol-2(3H)-one] | 7.70 to 8.68
26 | COc1nc(-n2ccn(Cc3cccc(F)c3F)c2=O)ccc1-c1cn[nH]c1 [Example 375, 1-(2,3-difluorobenzyl)-3-(6-methoxy-5-(1H-pyrazol-4-yl)pyridin-2-yl)-1H-imidazol-2(3H)-one] | 7.70 to 8.68
27 | COc1cccc(Cn2ccn(-c3ccc(-c4cn[nH]c4)c(OC)n3)c2=O)c1 [Example 376, 1-(6-methoxy-5-(1H-pyrazol-4-yl)pyridin-2-yl)-3-(3-methoxybenzyl)-1H-imidazol-2(3H)-one] | > 8.70
28 | COc1nc(-n2ccn(Cc3ccc(F)c(OCC4CC4)c3)c2=O)ccc1-c1cn[nH]c1 [Example 377, 1-(3-(cyclopropylmethoxy)-4-fluorobenzyl)-3-(6-methoxy-5-(1H-pyrazol-4-yl)pyridin-2-yl)-1H-imidazol-2(3H)-one] | 7.70 to 8.68
